Reference: US20240228489A1, “POSITIVE ALLOSTERIC MODULATORS OF THE MUSCARINIC ACETYLCHOLINE RECEPTOR M1” (Vanderbilt University, priority 2021, published 2024)

Tests used:
human mAChR M1 [1] = molecular target: T1, human mAChR M1 (Homo sapiens, UniProt P11229); experiment: mAChR M1 cell-based functional assay (calcium mobilization), PAM mode: increase in the EC20 acetylcholine response
T1 sequence (P11229 1-460): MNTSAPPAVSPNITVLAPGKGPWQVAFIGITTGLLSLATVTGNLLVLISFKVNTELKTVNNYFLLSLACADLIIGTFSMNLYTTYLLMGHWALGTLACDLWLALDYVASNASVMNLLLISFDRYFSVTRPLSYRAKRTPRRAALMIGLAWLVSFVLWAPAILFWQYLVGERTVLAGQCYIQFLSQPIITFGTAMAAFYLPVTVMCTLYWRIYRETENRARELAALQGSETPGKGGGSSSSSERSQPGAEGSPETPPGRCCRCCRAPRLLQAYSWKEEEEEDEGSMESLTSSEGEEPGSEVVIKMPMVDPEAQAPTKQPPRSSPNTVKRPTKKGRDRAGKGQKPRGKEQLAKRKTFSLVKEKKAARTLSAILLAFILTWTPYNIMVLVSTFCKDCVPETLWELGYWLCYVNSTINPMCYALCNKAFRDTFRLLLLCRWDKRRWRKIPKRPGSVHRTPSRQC
Procedure, shortened: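 PAM readout is the concentration-dependent rise in the EC20 acetylcholine calcium signal, fitted to a four-parameter logistic (EC50, Emax). Compounds were preincubated from 4 s before ACh at 144 s (EC20) and 230 s (EC80). hM1-expressing CHO-K1 cells loaded with Fluo-4, FDSS ratio read.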

human mAChR M1 [2] = molecular target: T1, human mAChR M1; experiment: mAChR M1 cell-based functional assay (calcium mobilization), agonist mode: compound alone, Emax relative to acetylcholine maximum; details: for Agonist Activity Human M1 EC50 / EC50: human mAChR M1
Procedure, shortened: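 Agonist activity is the concentration-dependent rise in intracellular calcium (Fluo-4, 1 Hz read) after compound addition, measured before any acetylcholine was added, in stable hM1 CHO-K1 cells. Curves were 11-point, 1:3 dilutions fitted by four-parameter logistic. Emax is given as a fraction of maximal acetylcholine response.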

[3] = relative to the maximum for acetylcholine

## [2H]C1([2H])c2ncccc2C(=O)N1Cc1c(F)cc(-c2cccc3c2cnn3C([2H])([2H])[2H])cc1F [Compound 67, 6-(2,6-difluoro-4-(1-(methyl-d3)-1H-indazol-4-yl)benzyl)-6,7-dihydro-5H-pyrrolo[3,4-b]pyridin-5-one-7,7-d2]
Human mAChR M1 [1]
  EC50: 823 nM
  Emax: 71%
Human mAChR M1 [2]
  Agonist Activity Human M1 EC50: Inactive
Human mAChR M1 [2]; [3]
  Emax: 2%

## [2H]C1([2H])c2ncccc2C(=O)N1Cc1c(F)cc(-c2ccc(F)c3c2cnn3C([2H])([2H])[2H])cc1F [Compound 68, 6-(2,6-difluoro-4-(7-fluoro-1-(methyl-d3)-1H-indazol-4-yl)benzyl)-6,7-dihydro-5H-pyrrolo[3,4-b]pyridin-5-one-7,7-d2]
Human mAChR M1 [1]
  EC50: > 10000 nM
  Emax: 64%
Human mAChR M1 [2]
  Agonist Activity Human M1 EC50: Inactive
Human mAChR M1 [2]; [3]
  Emax: 2%

## [2H]C1([2H])c2ncccc2C(=O)N1Cc1c(F)cc(-c2ccc(OC)c3c2cnn3C([2H])([2H])[2H])cc1F [Compound 69, 6-(2,6-difluoro-4-(7-methoxy-1-(methyl-d3)-1H-indazol-4-yl)benzyl)-6,7-dihydro-5H-pyrrolo[3,4-b]pyridin-5-one-7,7-d2]
Human mAChR M1 [1]
  EC50: 2190 nM
  Emax: 68%
Human mAChR M1 [2]
  Agonist Activity Human M1 EC50: Inactive
Human mAChR M1 [2]; [3]
  Emax: 2%

## [2H]C1([2H])c2ncccc2C(=O)N1Cc1c(F)cc(-c2ccc(C)c3c2cnn3C([2H])([2H])[2H])cc1F [Compound 70, 6-(2,6-difluoro-4-(7-methyl-1-(methyl-d3)-1H-indazol-4-yl)benzyl)-6,7-dihydro-5H-pyrrolo[3,4-b]pyridin-5-one-7,7-d2]
Human mAChR M1 [1]
  EC50: 1220 nM
  Emax: 65%
Human mAChR M1 [2]
  Agonist Activity Human M1 EC50: Inactive
Human mAChR M1 [2]; [3]
  Emax: 2%

## [2H]C1([2H])c2ncccc2C(=O)N1Cc1ccc(-c2cc(F)cc3nn(C)cc23)cc1F [Compound 71, 6-(2-fluoro-4-(6-fluoro-2-methyl-2H-indazol-4-yl)benzyl)-6,7-dihydro-5H-pyrrolo[3,4-b]pyridin-5-one-7,7-d2]
Human mAChR M1 [1]
  EC50: 698 nM
  Emax: 75%
Human mAChR M1 [2]
  Agonist Activity Human M1 EC50: Inactive
Human mAChR M1 [2]; [3]
  Emax: 1%

## [2H]C1([2H])c2ncccc2C(=O)N1Cc1ccc(-c2cc(F)cc3nn(C)cc23)cc1 [Compound 72, 6-(4-(6-fluoro-2-methyl-2H-indazol-4-yl)benzyl)-6,7-dihydro-5H-pyrrolo[3,4-b]pyridin-5-one-7,7-d2]
Human mAChR M1 [1]
  EC50: 472 nM
  Emax: 75%
Human mAChR M1 [2]
  Agonist Activity Human M1 EC50: Inactive
Human mAChR M1 [2]; [3]
  Emax: 4%

## [2H]C1([2H])c2ncccc2C(=O)N1Cc1c(F)cc(-c2ccc(Cl)c3nn(C([2H])([2H])[2H])cc23)cc1F [Compound 73, 6-(4-(7-chloro-2-(methyl-d3)-2H-indazol-4-yl)-2,6-difluorobenzyl)-6,7-dihydro-5H-pyrrolo[3,4-b]pyridin-5-one-7,7-d2]
Human mAChR M1 [1]
  EC50: 170 nM
  Emax: 77%
Human mAChR M1 [2]
  Agonist Activity Human M1 EC50: Inactive
Human mAChR M1 [2]; [3]
  Emax: 1%

## [2H]C1([2H])c2ncccc2C(=O)N1Cc1c(F)cc(-c2ccc(C(F)(F)F)c3nn(C([2H])([2H])[2H])cc23)cc1F [Compound 74, 6-(2,6-difluoro-4-(2-(methyl-d3)-7-(trifluoromethyl)-2H-indazol-4-yl)benzyl)-6,7-dihydro-5H-pyrrolo[3,4-b]pyridin-5-one-7,7-d2]
Human mAChR M1 [1]
  EC50: 592 nM
  Emax: 81%
Human mAChR M1 [2]
  Agonist Activity Human M1 EC50: Inactive
Human mAChR M1 [2]; [3]
  Emax: 1%

## [2H]C1([2H])c2ncccc2C(=O)N1Cc1c(F)cc(-c2cc(Cl)cc3nn(C)cc23)cc1F [Compound 75, 6-(4-(6-chloro-2-methyl-2H-indazol-4-yl)-2,6-difluorobenzyl)-6,7-dihydro-5H-pyrrolo[3,4-b]pyridin-5-one-7,7-d2]
Human mAChR M1 [1]
  EC50: 626 nM
  Emax: 55%
Human mAChR M1 [2]
  Agonist Activity Human M1 EC50: Inactive
Human mAChR M1 [2]; [3]
  Emax: 1%

## [2H]C1([2H])c2ncccc2C(=O)N1Cc1c(F)cc(-c2cc(OC)c3nn(C)cc3c2)cc1F [Compound 76, 6-(2,6-difluoro-4-(7-methoxy-2-methyl-2H-indazol-5-yl)benzyl)-6,7-dihydro-5H-pyrrolo[3,4-b]pyridin-5-one-7,7-d2]
Human mAChR M1 [1]
  EC50: 58 nM
  Emax: 78%
Human mAChR M1 [2]
  EC50: 3740 nM
Human mAChR M1 [2]; [3]
  Emax: 29%

## [2H]C1([2H])c2ncccc2C(=O)N1Cc1c(F)cc(-c2cc(F)c(Cl)c3nn(C)cc23)cc1F [Compound 77, 6-(4-(7-chloro-6-fluoro-2-methyl-2H-indazol-4-yl)-2,6-difluorobenzyl)-6,7-dihydro-5H-pyrrolo[3,4-b]pyridin-5-one-7,7-d2]
Human mAChR M1 [1]
  EC50: 1350 nM
  PAM Activity Emax: 47%
Human mAChR M1 [2]
  Agonist Activity Human M1 EC50: Inactive
Human mAChR M1 [2]; [3]
  Agonist Activity Emax: 1%

## [2H]C([2H])([2H])Oc1cnc2c(c1)C(=O)N(Cc1c(F)cc(-c3cccc4nn(C([2H])([2H])[2H])cc34)cc1F)C2([2H])[2H] [Compound 78, 6-(2,6-difluoro-4-(2-(methyl-d3)-2H-indazol-4-yl)benzyl)-3-(methoxy-d3)-6,7-dihydro-5H-pyrrolo[3,4-b]pyridin-5-one-7,7-d2]
Human mAChR M1 [1]
  EC50: 100 nM
  Emax: 77%
Human mAChR M1 [2]
  Agonist Activity Human M1 EC50: Inactive
Human mAChR M1 [2]; [3]
  Emax: 6%

## [2H]C1([2H])c2ncccc2C(=O)N1Cc1c(F)cc(-c2cn(C)c(=O)c3nn(C)cc23)cc1F [Compound 79, 4-(3,5-difluoro-4-((5-oxo-5,7-dihydro-6H-pyrrolo[3,4-b]pyridin-6-yl-7,7-d2)methyl)phenyl)-2,6-dimethyl-2,6-dihydro-7H-pyrazolo[3,4-c]pyridin-7-one]
Human mAChR M1 [1]
  EC50: 793 nM
  Emax: 79%
Human mAChR M1 [2]
  EC50: ≥ 10000 nM
Human mAChR M1 [2]; [3]
  Emax: 16%

## [2H]C1([2H])c2ncccc2C(=O)N1Cc1c(F)cc(-c2cn(C)c(=O)c3c2cnn3C)cc1F [Compound 80, 4-(3,5-difluoro-4-((5-oxo-5,7-dihydro-6H-pyrrolo[3,4-b]pyridin-6-yl-7,7-d2)methyl)phenyl)-1,6-dimethyl-1,6-dihydro-7H-pyrazolo[3,4-c]pyridin-7-one]
Human mAChR M1 [1]
  EC50: 2230 nM
  Emax: 59%
Human mAChR M1 [2]
  Agonist Activity Human M1 EC50: Inactive
Human mAChR M1 [2]; [3]
  Emax: 1%

## [2H]C1([2H])c2ncccc2C(=O)N1Cc1c(F)cc(-c2cc(C(F)F)cc3nn(C)cc23)cc1F [Compound 81, 6-(4-(6-(difluoromethyl)-2-methyl-2H-indazol-4-yl)-2,6-difluorobenzyl)-6,7-dihydro-5H-pyrrolo[3,4-b]pyridin-5-one-7,7-d2]
Human mAChR M1 [1]
  EC50: 159 nM
  Emax: 48%
Human mAChR M1 [2]
  Agonist Activity Human M1 EC50: Inactive
Human mAChR M1 [2]; [3]
  Emax: 2%

## [2H]C([2H])([2H])Oc1cnc2c(c1)C(=O)N(Cc1ccc(-c3cccc4nn(C)cc34)cc1F)C2([2H])[2H] [Compound 82, 6-(2-fluoro-4-(2-methyl-2H-indazol-4-yl)benzyl)-3-(methoxy-d3)-6,7-dihydro-5H-pyrrolo[3,4-b]pyridin-5-one-7,7-d2]
Human mAChR M1 [1]
  EC50: 120 nM
  Emax: 79%
Human mAChR M1 [2]
  EC50: 4930 nM
Human mAChR M1 [2]; [3]
  Emax: 25%

## [2H]C([2H])([2H])Oc1cnc2c(c1)C(=O)N(Cc1ccc(-c3cccc4nn(C)cc34)cc1)C2([2H])[2H] [Compound 83, 3-(methoxy-d3)-6-(4-(2-methyl-2H-indazol-4-yl)benzyl)-6,7-dihydro-5H-pyrrolo[3,4-b]pyridin-5-one-7,7-d2]
Human mAChR M1 [1]
  EC50: 244 nM
  Emax: 80%
Human mAChR M1 [2]
  EC50: 6230 nM
Human mAChR M1 [2]; [3]
  Emax: 19%

## [2H]C1([2H])c2ncccc2C(=O)N1Cc1ccc(-c2cc(F)cc3nn(C)cc23)cc1C [Compound 84, 6-(4-(6-fluoro-2-methyl-2H-indazol-4-yl)-2-methylbenzyl)-6,7-dihydro-5H-pyrrolo[3,4-b]pyridin-5-one-7,7-d2]
Human mAChR M1 [1]
  EC50: 1240 nM
  Emax: 74%
Human mAChR M1 [2]
  Agonist Activity Human M1 EC50: Inactive
Human mAChR M1 [2]; [3]
  Emax: 2%

## [2H]C1([2H])c2ncccc2C(=O)N1Cc1c(F)cc(-c2cc(Cl)cc3nn(C([2H])([2H])[2H])cc23)cc1F [Compound 85, 6-(4-(6-chloro-2-(methyl-d3)-2H-indazol-4-yl)-2,6-difluorobenzyl)-6,7-dihydro-5H-pyrrolo[3,4-b]pyridin-5-one-7,7-d2]
Human mAChR M1 [1]
  EC50: 654 nM
  Emax: 51%
Human mAChR M1 [2]
  Agonist Activity Human M1 EC50: Inactive
Human mAChR M1 [2]; [3]
  Emax: 2%

## [2H]C1([2H])c2ncccc2C(=O)N1Cc1c(F)cc(-c2cc(F)cc3nn(C([2H])([2H])[2H])cc23)cc1F [Compound 86, 6-(2,6-difluoro-4-(6-fluoro-2-(methyl-d3)-2H-indazol-4-yl)benzyl)-6,7-dihydro-5H-pyrrolo[3,4-b]pyridin-5-one-7,7-d2]
Human mAChR M1 [1]
  EC50: 237 nM
  Emax: 46%
Human mAChR M1 [2]
  Agonist Activity Human M1 EC50: Inactive
Human mAChR M1 [2]; [3]
  Emax: 2%

## [2H]C([2H])([2H])Oc1cc(-c2cc(F)c(CN3C(=O)c4cccnc4C3([2H])[2H])c(F)c2)c2cn(C([2H])([2H])[2H])nc2c1 [Compound 87, 6-(2,6-difluoro-4-(6-(methoxy-d3)-2-(methyl-d3)-2H-indazol-4-yl)benzyl)-6,7-dihydro-5H-pyrrolo[3,4-b]pyridin-5-one-7,7-d2]
Human mAChR M1 [1]
  EC50: 819 nM
  Emax: 69%
Human mAChR M1 [2]
  Agonist Activity Human M1 EC50: Inactive
Human mAChR M1 [2]; [3]
  Emax: 11%
